Laboratory results: patent publication US20260083865A1, “PROSTATE SPECIFIC MEMBRANE ANTIGEN (PSMA) LIGANDS AND USE THEREOF” (priority 2022, published 2026)
Like-named read-outs stand apart in the source and are kept apart here. Numbered stars: 1 amine (or outer) side, 2 acyl side, 3 side chain; on linkers, the order of the positions; unused ones are H or OH. Bridge positions count the residues as written; N and C are the ends. Square brackets hold non-standard residues; d marks the D form. Peptide text beside a SMILES is read from it. * marks the point of attachment. X3 = O=C(O)CN1CCN(CC(=O)O)CCN(CC(=O)NCCCOCCOCCOCCCN*)CCN(CC(=O)O)CC1; DOTA = O=C(O)CN1CCN(CC(=O)O)CCN(CC(=O)*)CCN(CC(=O)O)CC1; Trp(5-Br) = N[C@@H](Cc1c[nH]c2ccc(Br)cc12)C(=O)O; X13 = C/N=C(/NC)N(C)CCC[C@H](N[*:1])C(=O)[*:2]; Phe(4-Cl) = N[C@@H](Cc1ccc(Cl)cc1)C(=O)O; Phe(3-Me) = Cc1cccc(C[C@H](N)C(=O)O)c1; Arg(Me) = CNC(=N)NCCC[C@H](N)C(=O)O; X1 = O=C(CC1CCN([*:1])CC1)[*:2]; Lys(Me) = CNCCCC[C@H](N)C(=O)O; Suc = O=C(CCC(=O)[*:2])[*:1]; Tle = CC(C)(C)[C@H](N)C(=O)O; αMeS = C[C@](N)(CO)C(=O)O; Aib = CC(C)(N)C(=O)O

Assays:
[1] = biological target: T1, PSMA-expressing C4-2 cells (Homo sapiens, UniProt Q04609); test: FACS binding assay (competition with 50 nM PSM-0183); settings: read-out: pIC50 [C4-2] CAT (converted)
T1 construct: PSMA-expressing C4-2 cells (ATCC, Cat. No. CRL-3314) were cultured in RPMI-1640; host or cells: C4-2 cells
T1 sequence (Q04609 whole entry): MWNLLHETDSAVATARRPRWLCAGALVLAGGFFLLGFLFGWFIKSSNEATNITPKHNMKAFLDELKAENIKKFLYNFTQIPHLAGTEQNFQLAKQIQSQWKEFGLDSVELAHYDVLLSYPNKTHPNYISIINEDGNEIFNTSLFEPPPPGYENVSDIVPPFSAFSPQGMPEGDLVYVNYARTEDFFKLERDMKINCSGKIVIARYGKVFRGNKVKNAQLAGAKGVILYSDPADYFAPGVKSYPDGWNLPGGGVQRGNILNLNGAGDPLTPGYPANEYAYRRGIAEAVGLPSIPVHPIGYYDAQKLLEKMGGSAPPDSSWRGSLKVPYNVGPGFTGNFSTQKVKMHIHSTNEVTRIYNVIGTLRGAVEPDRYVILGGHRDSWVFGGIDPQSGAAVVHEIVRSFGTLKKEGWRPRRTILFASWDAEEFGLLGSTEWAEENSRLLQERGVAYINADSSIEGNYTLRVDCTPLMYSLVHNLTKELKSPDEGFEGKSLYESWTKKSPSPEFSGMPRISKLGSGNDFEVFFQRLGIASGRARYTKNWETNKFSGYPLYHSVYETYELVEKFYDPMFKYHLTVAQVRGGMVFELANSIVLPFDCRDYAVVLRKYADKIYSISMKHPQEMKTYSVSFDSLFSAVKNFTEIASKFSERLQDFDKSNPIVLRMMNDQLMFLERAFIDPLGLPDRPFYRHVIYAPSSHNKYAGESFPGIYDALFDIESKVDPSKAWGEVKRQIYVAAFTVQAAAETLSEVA
In short: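 C4-2 cells were incubated 1 h at 4 °C with 50 nM AF488-labelled peptide PSM-0183 plus increasing test compound concentrations, then washed twice in ice-cold buffer. Median fluorescence in the AF488 channel was read by flow cytometry. IC50/pIC50 was derived by 4PL fitting of MFI versus concentration.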

[2] = biological target: T2, Fc-fusion protein of human PSMA (hPSMA-Fc) (Homo sapiens, UniProt Q04609); test: Surface plasmon resonance assay (Biacore T200, single cycle kinetic); format: binding; settings: hPSMA-Fc, 25° C., read-out: pKD CAT (converted)
T2 construct: purchased Acro Biosystems PSA-H5264
T2 sequence (Q04609 44-750 limits assumed): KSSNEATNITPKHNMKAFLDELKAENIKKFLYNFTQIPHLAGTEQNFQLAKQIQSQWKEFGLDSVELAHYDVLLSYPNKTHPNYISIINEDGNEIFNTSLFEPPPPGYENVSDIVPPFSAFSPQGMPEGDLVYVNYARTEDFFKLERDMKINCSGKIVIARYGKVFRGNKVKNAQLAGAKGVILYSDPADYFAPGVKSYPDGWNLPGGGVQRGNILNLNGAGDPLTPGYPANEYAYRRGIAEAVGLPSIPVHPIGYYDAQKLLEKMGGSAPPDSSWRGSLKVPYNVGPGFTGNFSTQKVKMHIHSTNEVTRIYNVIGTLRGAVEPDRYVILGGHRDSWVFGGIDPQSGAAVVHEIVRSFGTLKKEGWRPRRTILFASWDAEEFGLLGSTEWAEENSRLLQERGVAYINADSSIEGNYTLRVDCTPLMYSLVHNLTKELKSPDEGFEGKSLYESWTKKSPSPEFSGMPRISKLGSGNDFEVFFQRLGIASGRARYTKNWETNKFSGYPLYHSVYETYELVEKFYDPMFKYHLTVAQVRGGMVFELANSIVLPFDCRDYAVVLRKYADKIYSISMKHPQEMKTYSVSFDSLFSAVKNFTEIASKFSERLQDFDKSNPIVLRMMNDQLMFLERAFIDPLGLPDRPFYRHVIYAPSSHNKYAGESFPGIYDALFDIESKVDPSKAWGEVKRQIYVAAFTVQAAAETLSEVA
In short: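 hPSMA-Fc was captured (~1000 RU) on an Fc-binding-peptide CM5 chip, and compounds were run in single cycle kinetic mode at 25° C in HBST with 0.1% DMSO. Double-blank-corrected sensorgrams were fitted to a 1:1 Langmuir model to give KD, reported as pKD.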

[3] = pIC50 category of FACS binding, C4-2 cells
[4] = pKD category for PSMA SPR activity assay
[5] = FACS binding, C4-2 cells, competition with 50 nM PSM-0183, category
[6] = SPR, single cycle kinetic, category

Row | SMILES | IC50 [1, 3] [nM] | Kd [2, 4] [nM] | IC50 [1, 5] [nM] | Kd [2, 6] [nM] | further results
1 | C[C@@H](O)[C@H](NC(=O)[C@@H](NC(=O)[C@@H]1CSSC[C@H](NC(=O)[C@H](Cc2ccc(Cl)cc2)NC(=O)[C@](C)(CO)NC(=O)[C@@H](NC(=O)CC2CCN(C(=O)CN3CCN(CC(=O)O)CCN(CC(=O)O)CCN(CC(=O)O)CC3)CC2)[C@@H](C)O)C(=O)N[C@@H](CCCCN)C(=O)N[C@@H](CCCNC(=N)N)C(=O)NC(C)(C)C(=O)N[C@@H](CC(N)=O)C(=O)N1)C(C)(C)C)C(N)=O [PSM-0369, DOTA-Cmp-Thr-Ams-Pcf-[Cys-Lys-Arg-Aib-Asn-Cys]-Tle-Thr-NH2] ({DOTA}-[X1]T[αMeS][Phe(4-Cl)]CKR[Aib]NC[Tle]T-NH2; disulfide 5-10) | < 200 | < 12.6 |  |  | 
2 | C/N=C(/NC)N(C)CCC[C@@H]1NC(=O)[C@H](CCCCNC)NC(=O)[C@@H](NC(=O)[C@H](Cc2ccc(Cl)cc2)NC(=O)C(C)(C)NC(=O)[C@@H](NC(=O)CC2CCN(C(=O)CN3CCN(CC(=O)O)CCN(CC(=O)O)CCN(CC(=O)O)CC3)CC2)[C@@H](C)O)CSSC[C@@H](C(=O)N[C@H](C(=O)N[C@H](C(N)=O)[C@@H](C)O)C(C)(C)C)NC(=O)[C@H](CC(N)=O)NC(=O)C(C)(C)NC1=O [PSM-0355, DOTA-Cmp-Thr-Aib-Pcf-[Cys-Lys(Me)-RMe3-Aib-Asn-Cys]-Tle-Thr-NH2] ({DOTA}-[X1]T[Aib][Phe(4-Cl)]C[Lys(Me)][X13][Aib]NC[Tle]T-NH2; disulfide 5-10) |  |  |  |  | IC50 ([1]; FACS binding, PSMA-expressing C4-2 cells, pIC50 category): 200 to 1260 nM; Kd ([2]; PSMA SPR assay, pKD category): < 12.6 nM
3 | CC(=O)N[C@H](C(=O)NC(C)(C)C(=O)N[C@@H](Cc1cccc(C)c1)C(=O)N[C@H]1CSSC[C@@H](C(=O)N[C@H](C(=O)N[C@H](C(N)=O)[C@@H](C)O)C(C)(C)C)NC(=O)[C@H](CC(N)=O)NC(=O)C(C)(C)NC(=O)[C@H](CCCNC(=N)N)NC(=O)[C@H](CCCCN)NC1=O)[C@@H](C)O [PSM-0412, Ac-Thr-Aib-Mmf-[Cys-Lys-Arg-Aib-Asn-Cys]-Tle-Thr-NH2] (Ac-T[Aib][Phe(3-Me)]CKR[Aib]NC[Tle]T-NH2; disulfide 4-9) | < 200 | < 12.6 |  |  | 
4 | CNCCCC[C@@H]1NC(=O)[C@@H](NC(=O)[C@H](Cc2c[nH]c3ccc(Br)cc23)NC(=O)C(C)(C)NC(=O)[C@@H](NC(=O)CC2CCN(C(=O)CN3CCN(CC(=O)O)CCN(CC(=O)O)CCN(CC(=O)O)CC3)CC2)[C@@H](C)O)CSSC[C@@H](C(=O)N[C@H](C(=O)N[C@H](C(N)=O)[C@@H](C)O)C(C)(C)C)NC(=O)[C@H](CC(N)=O)NC(=O)C(C)(C)NC(=O)[C@H](CCCNC(=N)NC)NC1=O [PSM-0206, DOTA-Cmp-Thr-Aib-5Brw-[Cys-Lys(Me)-Arg(Me)-Aib-Asn-Cys]-Tle-Thr-NH2] ({DOTA}-[X1]T[Aib][Trp(5-Br)]C[Lys(Me)][Arg(Me)][Aib]NC[Tle]T-NH2; disulfide 5-10) |  |  | 1260 to 3160 | > 501 | 

Second part, led by results:

Row | IC50 [1, 3] [nM] | Kd [2, 4] [nM] | IC50 [1, 5] [nM] | Kd [2, 6] [nM] | SMILES | further results
5 | < 200 | < 12.6 |  |  | C[C@@H](O)[C@H](NC(=O)CCC(=O)NCCCOCCOCCOCCCNC(=O)CN1CCN(CC(=O)O)CCN(CC(=O)O)CCN(CC(=O)O)CC1)C(=O)NC(C)(C)C(=O)N[C@@H](Cc1ccccc1)C(=O)N[C@H]1CSSC[C@@H](C(=O)N[C@H](C(=O)N[C@H](C(=O)N[C@@H](CC(=O)O)C(N)=O)[C@@H](C)O)C(C)(C)C)NC(=O)[C@H](CC(N)=O)NC(=O)C(C)(C)NC(=O)[C@H](CCCNC(=N)N)NC(=O)[C@H](CCCCN)NC1=O [PSM-0398, DOTA-Ttds-Thr-Aib-Phe-[Cys-Lys-Arg-Aib-Asn-Cys]-Tle-Thr-Asp-NH2] ({X3-Suc}-T[Aib]FCKR[Aib]NC[Tle]TD-NH2; disulfide 4-9) | 
6 |  |  | < 200 | < 12.6 | C[C@@H](O)[C@H](NC(=O)[C@@H](NC(=O)[C@@H]1CSSC[C@H](NC(=O)[C@H](Cc2ccccc2)NC(=O)C(C)(C)NC(=O)[C@@H](NC(=O)CCC(=O)NCCCOCCOCCOCCCNC(=O)CN2CCN(CC(=O)O)CCN(CC(=O)O)CCN(CC(=O)O)CC2)[C@@H](C)O)C(=O)N[C@@H](CCCCN)C(=O)N[C@@H](CCCNC(=N)N)C(=O)NC(C)(C)C(=O)N[C@@H](CC(N)=O)C(=O)N1)C(C)(C)C)C(N)=O [PSM-0259, DOTA-Ttds-Thr-Aib-Phe-[Cys-Lys-Arg-Aib-Asn-Cys]-Tle-Thr-NH2] ({X3-Suc}-T[Aib]FCKR[Aib]NC[Tle]T-NH2; disulfide 4-9) | 
